System: PB leukocytes and brain myeloid cells
Experiment: Conventional HSCT after busulfan conditioning: GFP chimerism in peripheral blood and brain
Assay type: in vivo, mouse
Settings: busulfan 5 days, IV GFP bone marrow
Description: FIG. 1. Microglia replacement after bone marrow transplantation is a slow, inefficient and variable process. (A) Schematic overview of bone marrow transplantation (HSCT). Recipient mice were received intraperitoneal (IP) injection of busulfan for 5 days at 25 mg/kg/day (i.e. 125 mg/kg total dose) and then transplanted with GFP-expressing bone marrow cells via intravenous (IV) injection. Donor chimerism in peripheral blood (PB) and brain myeloid cells was analyzed at the indicated time points. (B and C) Donor chimerism in PB leukocytes (CD45+ cells) and brain myeloid cells (CD45+CD11b+ cells) was analyzed by flow cytometry at the indicated time point. […] GFP chimerism in PB leukocytes (B) (Mean±SEM, n=5-20/time point, ***p<0.001, ns: not significant, ANOVA). […] (F) Quantification of transplanted GFP+bone marrow cells in coronal brain sections. […] Horizontal bars represent mean values (n=3/group, 3 brain slices/animal were quantified. **p<0.01, ***p<0.001, Student's t-test). […] (H) Microglia chimerism was analyzed by flow cytometry 14 days post IV injection. […]
The reported efficiencies of microglia replacement following HSCT in mice vary greatly in the literature. […] Brain chimerism was determined by sacrificing the mice, dissociating one hemisphere for flow cytometry analysis and fixing the other hemisphere for immunofluorescence analysis (FIG. 8A-C). […]

CS(=O)(=O)OCCCCOS(C)(=O)=O [busulfan]
GFP+ cells in peripheral blood (2 weeks after transplantation, average): about 40% | degree of GFP chimerism among brain myeloid cells, range between mice (conventional HSCT without PLX5622): 7.09-73.4%

— patent publication US20230398153A1, “A METHOD FOR EFFICIENT MICROGLIA REPLACEMENT” (The Board of Trustees of the Leland Stanford Junior …, priority 2020, published 2023)
